Measurements taken from ChEMBL document CHEMBL1201862, “PubChem BioAssay data set” (2004).
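Cells were grown in 96-well plates and exposed to each compound for 48 hours at five concentrations; endpoints were interpolated linearly between bracketing concentrations, or set to the highest concentration if not reached. Here, GI50 denotes the concentration required for 50% inhibition of growth.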 Calls of active or inactive are those of the source. No stated cut-off is given here; in the data, active = GI50 up to about 1.1 µM and inactive = higher.

Columns and labels:
Assay in all cases: growth of human tumour cells (NCI), 48 h
M19-MEL = tested on: M19-MEL
DMS-114 = tested on: DMS-114
HOP-18 = tested on: HOP-18
SNB-78 = tested on: SNB-78
RXF 631 = tested on: RXF 631
DMS-273 = tested on: DMS-273
DLD-1 = tested on: DLD-1
KM-20L2 = tested on: KM-20L2
XF498 = tested on: XF498

Measured: GI50

CN/N=C(/CCN1CCCC1)CC(c1ccccc1)c1c(O)c2ccccc2oc1=O (centres undefined)
inactive: M19-MEL > 100 µM | DMS-114 > 100 µM | HOP-18 > 100 µM | SNB-78 > 100 µM | RXF 631 > 100 µM | DMS-273 > 100 µM | DLD-1 > 100 µM | KM-20L2 > 100 µM | XF498 > 100 µM
